Assay results as given in patent publication US8759363B2, “Quinazoline-based T cell proliferation inhibitors” (Yissum Research Development Company of the Hebrew …, priority 2010, dated 2014).

What was measured:
PBMC = PBMC proliferation, BrdU incorporation; type: cell-based, human; conditions: Homo sapiens; ConA-stimulated PBMC, BrdU uptake; nM ± SD; read-out: IC50 PBMC proliferation inhibition
Procedure: Blood samples were taken from healthy donors and loaded on a Ficoll density gradient to purify the PBMC population. T cells were purified by human anti-CD3 using an autoMACS instrument (Miltenyi Biotec, Bergisch-Gladbach, Germany), according to the manufacturer's instructions. The identity of T cells was confirmed by flow cytometry, as they stained positive for CD3. Cells were stimulated with ConA (10 μg/ml), ODN2006 (0.5 μg/ml; Enzo Life Sciences), or LPS (50 μg/ml; Sigma-Aldrich, Steinheim, Germany), for 72 h in the presence of the inhibitor, and their proliferation was measured in the BrdU incorporation assay as will be later described.
(§1) Cells were depleted of fetal calf serum (FCS) for 12 hours. They were then stimulated to proliferate by addition of ConA (10 μg/ml) for PBMC from healthy individuals and for Jurkat cells, FCS (10%) for HEK293 and A375 cells, PDGF (30 ng/ml) for NIH 3T3 cells, and EGF (30 ng/ml) for MDA-MB-231, Cells (1×10^5) were cultured in 96-well plates for 3 days in the presence or absence of inhibitors at the concentrations specified in the text. Each condition was tested in duplicate wells.
(§2) Proliferation was assessed by BrdU incorporation using a colorimetric ELISA kit (Roche, Germany). Subsequent to labeling with 10 μM BrdU, DNA was denatured and the cells were incubated with anti-BrdU-POD, prior to the addition of colorimetric substrate (TMB). The reaction product was quantified by measuring absorbance at 450 nm in an ELISA plate reader (ELx800 BIO-TEK Instruments Inc.).
(§3) Since we were not prejudiced towards any specific protein kinase, we used a biological assay for T cell proliferation. We tested our libraries for inhibition of proliferation of PBMC and Jurkat cells (Table 3). Cell proliferation was measured by BrdU uptake. […] PBMC cells were stimulated by a non-specific T cell mitogen, Concanavalin A (ConA). All of the compounds that were tested inhibited proliferation at micromolar or sub-micromolar concentrations.

[1] = tested on: CD8+ (2C) and CD4+ (TEA) T cells; assay: MLR, double-positive CD8+1B2+ (2C) or CD4+/Va2+ (TEA) effector cells by FACS; type: cell-based, mouse; conditions: 72 h MLR
From the text: Mice used included male and female 6- to 12-week-old CB6/F1 mice, obtained from the Roscoe B. Jackson Memorial Laboratory (The Jackson Laboratory, Bar Harbor, Me., http://www.jax.org). A breeding pair of transgenic (Tg) H-2b mice expressing the T-cell antigen receptor (TCR) 1B2 from the CD8+ clone 2C with specificity for H-2Ld was kindly provided by Janko Nikolic-Zugic (Memorial Sloan-Kettering Cancer Center, New York, http://www.mskcc.org). A breeding pair of Tg H-2b mice expressing the TCR from the CD4+ clone known as TEA with specificity for I-Ead allopeptide, cross-presented by host APC and bound to I-Ab and was kindly provided by Alexander Y. Rudensky (University of Washington, Seattle). I-Ead allopeptide corresponds to the positions 52 to 68 from the alpha-chain of I-E class II molecules and is expressed in all APCs from H-2b/I-E+ strains (CB6F1-hybrid of C57BL/6 and Balb/c). C57BL/6 mice are H-2b but I-E−, whereas BALB/c are H-2d and I-E+, and therefore their F1 hybrids are H-2b/1-E+ and able to directly present antigen.
Responder 2C splenocytes were harvested, and the cell suspensions were treated with Tris-buffered ammonium chloride to remove RBC. […] On day 3, the MLR cultures were harvested, and analyzed by FACS for CD4 or CD8 levels.
FACS analysis was performed using a modified FACScan (BD Biosciences, Mountain View, Calif.). Fluorescence data were collected during one minute. […]

OT2 (resting) cells = assay: MLR with resting control cells, resting OT2 cells; type: cell-based, mouse; conditions: 0.5 μM, 72 h MLR with IL-7; no inhibitor 1025
From the text: (§4) The aim of this test was to determine whether 2 affects only the proliferating cells or there is a general mechanism affecting all cell numbers. For this purpose we mixed 3 cell types: […]: BALB/c, 2C and OT1; […]: CB6F1, TEA and OT2. The OT1 and OT2 are splenocytes that were isolated from OT1 and OT2 mice (Jackson Laboratories, Bar Harbor, Me.),
(§5) Thus, the ability to monitor the fate of proliferation and resting cells by FACS was enabled due to the use of the MLR described above for CD4+ and CD8+ and the addition of OT2 and OT1 splenocytes, respectively.
(§6) Proliferating cells often secrete cytokines that induce survival of neighbouring cells; since the proliferation was expected to be inhibited we added 50 ng/ml of IL-7. This concentration is sufficient to keep the cells alive, but not to induce proliferation.
(§7) The number of TEA and OT2 cells that were treated with 0.5 μM 2 was 1452 and 826, respectively, while the number of 2C and OT1 cells that were treated with 0.5 μM 21 was 3003 and 903, respectively. This is depicted as a bar-graph in FIG. 9C.

Jurkat cells = assay: Jurkat cell proliferation, BrdU incorporation; type: cell-based, human; conditions: Homo sapiens, Jurkat, BrdU uptake; nM ± SD; read-out: IC50 Jurkat cells proliferation inhibition
Procedure: as §1, §2, §3

TEA (stimulated) cells = assay: MLR with resting control cells, stimulated TEA cells; type: cell-based, mouse; conditions: 0.5 μM, 72 h MLR with IL-7; no inhibitor 3850
From the text: as §4, §5, §6, §7

[2] = tested on: IL-2 secretion by 2C splenocytes stimulated by irradiated BALB/c splenocytes; assay: IL-2 levels in MLR supernatants; type: cell-based, mouse; conditions: 24, 48 and 72 h MLR; compound 2 up to 1 μM
Procedure: In the mixed lymphocyte reaction, stimulator cells cause responder cells to proliferate, owing to alloreactivity [Reich-Zeliger et al., 2004]. Splenocytes from 2c mice were stimulated by irradiated splenocytes from BALB/c mice in the presence of the evaluated compound at the concentrations specified. Cultures were incubated for 72 hours in 96-well plates.
Jurkat or PBMC cells were treated for 12 h with 1 μM, 0.5 μM or no inhibitor. Cells (1×10^6) were plated in 24-well plates (Nunc) and stimulated by C305 (dilution 1:500), anti-CD28 (1:100), PMA (50 ng/ml) or ionomycin (1 μM) for 12 h. Alternately, cells were stimulated for 24, 48 and 72 h in MLR. After stimulation cells were centrifuged at 130×g for 5 minutes at room temperature.
Supernatants were collected and IL-2 was assayed using the IL-2 ELISA kit (BioSource International USA, KH0022) according to the manufacturer's instructions. Absorbance was read at 450 nm in an ELISA plate reader (ELx800 BIO-TEK Instruments Inc.).
In vivo, T cells are stimulated by neighboring cells. In order to test the effect of 2 on cell-stimulated IL-2 secretion, the supernatants of splenocytes after 24, 48 and 72 h MLR were collected and analyzed for their IL-2 levels (FIG. 5C). […] At higher concentrations, no viable cells remained.

OT1 (resting) cells = assay: MLR with resting control cells, resting OT1 cells; type: cell-based, mouse; conditions: 0.5 μM, 72 h MLR with IL-7; no inhibitor 2459
From the text: as §4, §5, §6
(§8) Irradiated Balb splenocytes were incubated for 72 h with 2C, and OT1 splenocytes in the presence of IL-7 W/O inhibitor.
(§9) The CD4+ and CD8+ were stimulated to proliferate, whereas in the absence of specific stimuli the OT1 and OT2 cell populations were resting, and theses cells were kept alive by the administration of IL-7. […] The number of 2C and OT1 cells that were treated with 0.5 μM 2 was 286 and 1148, respectively, while the number of 2C and OT1 cells that were treated with 0.5 μM 21 (control) was 4767 and 2468, respectively. This is depicted as a bar-graph in FIG. 8C.

2C (stimulated) cells = assay: MLR with resting control cells, stimulated 2C cells; type: cell-based, mouse; conditions: 0.5 μM, 72 h MLR with IL-7; no inhibitor 3805
From the text: as §4, §5, §6, §8, §9

Compound	IC50 (PBMC) [nM]	percentage of double-positive effector cells [1]	number of OT2 (resting) cells (OT2 (resting) cells)	IC50 (Jurkat cells) [nM]	melting point [°C]	number of TEA (stimulated) cells (TEA (stimulated) cells)	IL-2 levels in MLR supernatants [2]	number of OT1 (resting) cells (OT1 (resting) cells)	number of 2C (stimulated) cells (2C (stimulated) cells)
Cc1ccc(Nc2nc(-c3cc(O)c(O)c(O)c3)nc3ccccc23)cc1 [Compound 21, 5-(4-(p-tolylamino)quinazolin-2-yl)benzene-1,2,3-triol]	850 ± 0.21	no reduction was observed	903	850 ± 0.21	> 250	3003	decreased after 72 h	2468	4767
Oc1cc(-c2nc(NCc3ccc(Cl)c(Cl)c3)c3ccccc3n2)cc(O)c1O [Compound 32, 5-(4-(3,4-dichlorobenzylamino)quinazolin-2-yl)benzene-1,2,3-triol]	2600 ± 0.24	–	–	3640 ± 0.54	> 250	–	–	–	–
COc1ccc(CNc2nc(-c3cc(O)c(O)c(O)c3)nc3ccccc23)cc1 [Compound 33, 5-(4-(4-methoxybenzylamino)quinazolin-2-yl)benzene-1,2,3-triol]	3260 ± 0.49	–	–	5430 ± 0.76	> 250	–	–	–	–
Oc1cc(-c2nc(Nc3ccc4[nH]ncc4c3)c3ccccc3n2)cc(O)c1O [Compound 35, 5-(4-(1H-indazol-5-ylamino)quinazolin-2-yl)benzene-1,2,3-triol]	780 ± 0.67	–	–	710 ± 0.87	> 250	–	–	–	–
Oc1cc(-c2nc(NCCc3c[nH]c4ccccc34)c3ccccc3n2)cc(O)c1O [Compound 36, 5-(4-(2-(1H-indol-3-yl)ethylamino)quinazolin-2-yl)benzene-1,2,3-triol]	1240 ± 0.74	–	–	1970 ± 0.74	> 250	–	–	–	–
Oc1cc(-c2nc(Nc3ccc4c(c3)OCO4)c3ccccc3n2)cc(O)c1O [Compound 37, 5-(4-(benzo[d][1,3]dioxol-5-ylamino)quinazolin-2-yl)benzene-1,2,3-triol]	5500 ± 6.36	–	–	800 ± 0.28	> 250	–	–	–	–
Oc1cc(-c2nc(Nc3ccc4nc[nH]c4c3)c3ccccc3n2)cc(O)c1O [Compound 38, 5-(4-(3H-benzo[d]imidazol-5-ylamino)quinazolin-2-yl)benzene-1,2,3-triol]	4340 ± 0.74	–	–	2570 ± 0.82	> 250	–	–	–	–
